Data from patent publication US20050032787A1, “Pheny (alkyl)carboxylic acid derivatives and dionic phenylalkylheterocyclic derivatives and their use as medicines with serum glucose and/or serum lipid lowering activity” (priority 2002, published 2005).
Where a name gives a salt, the structure may show the parent alone. Marks after values point to notes of the source that are not given here.

Key:
[1] = tested on: 3T3-L1 cells; experiment: Determination of glucose consumption in differentiated 3T3-L1 cells; type: cell-based, mouse; details: 22 hours, glucose 25 mM, insulin 0.25 nM, concentrations assayed 1, 5, 10, 25 μM
Protocol: Determination of Glucose Consumption in 3T3-L1 Cells
Glucose consumption was assessed in differentiated 3T3-L1 cells.
Mouse fibroblasts (3T3-L1) were seeded at a density of 5×10^3/cm^2 and cultured on 12-well plates in 1 ml of DMEM containing glucose 25 mM and added with 10% CS, glutamine 4 mM, pyruvate 1 mM, penicillin 50 U/ml, and streptomycin 50 μg/ml, in an atmosphere humidified with 5% CO2 at 37° C.
Two to three days after confluence, differentiation was induced with the addition of 1.5 ml of DMEM containing 3-isobutyl-1-methylxanthine (IBMX) 0.5 mM, dexamethazone 1 μM and porcine insulin 10 μg/ml in glucose 25 mM and 10% FBS.
After 2 days, the cells were exposed to the same medium without IBMX and dexamethazone for another 2 days. […]
The cells were used 10-12 days after induction of differentiation, as monitored by evaluating triglyceride accumulation. […]
The analysis of the glucose in the medium was done with the aid of a Cobas Mira S autoanalyzer (Roche), using the HK 125 Glucose Kit (ABX Diagnostics). The glucose concumprion stimulated by the products was evaluated as % increase compared to the control compound. […]

[2] = tested on: C57BL/KsJ db/db mice; experiment: Antidiabetic and serum lipid lowering activity in db/db mice; details: oral twice daily for a fortnight, rosiglitazone 5 mg/kg, Example 22 25 mg/kg, vs control; for Reduction of glucose levels % / Reduction of triglyceride levels %: serum 7 hours after last treatment; for Change in GPT levels % / Change in HDL-cholesterol levels %: serum

melting point [°C]	Compound	also measured
149 to 151	CCOC(=O)[C@H](Cc1ccc(OC(=O)NCc2ccc(OC)cc2)cc1)NC(=O)c1ccccc1	
84	COC(=O)C(Cc1ccc(OC(=O)Nc2ccc(Cl)cc2Cl)cc1)C(=O)OC	
125 to 127	COC(=O)C(Cc1ccc(OC(=O)Nc2ccc(Cl)cc2)cc1)C(=O)OC	
128 to 130	COC(=O)C(Cc1ccc(OC(=O)Nc2ccc([N+](=O)[O-])cc2)cc1)C(=O)OC	
62 to 64	COC(=O)C(Cc1cccc(OC(=O)NCc2ccc(OC)cc2)c1)C(=O)OC	
90 to 92	CCCCc1ccc(NC(=O)Oc2ccc(CC(C(=O)OC)C(=O)OC)cc2)cc1	
79 to 80	COC(=O)C(Cc1cccc(OC(=O)Nc2ccc(Cl)cc2)c1)C(=O)OC	
78.6	COC(=O)C(Cc1ccc(OC(=O)NCc2ccc(OC)cc2)cc1)C(=O)OC (as salt: malonate)	
68 to 70	COC(=O)C(=Cc1ccc(OCCn2ccc3ccccc32)cc1)C(=O)OC [Example 3, dimethyl 4-[2-(1-indolyl]ethoxy]benzylidenemalonate]	
112 to 114	O=C(O)C(Cc1ccc(OCCn2ccc3ccccc32)cc1)C(=O)O [Example 5, 4-[2-(1-indolyl)ethoxy]benzylmalonic acid]	
85	COC(=O)CCc1ccc(OCCn2ccc3ccccc32)cc1 [Example 8, methyl 3-[4-[2-(1-indolyl)ethoxy]phenyl]-propanoate]	
50 to 52	COC(=O)Cc1ccc(OCCn2ccc3ccccc32)cc1 [Example 9, methyl 2-[4-[2-(1-indolyl)ethoxy]phenyl]acetate]	
70 to 72	COC(=O)C(O)Cc1ccc(OCCn2ccc3ccccc32)cc1 (centres unmarked) [Example 12, methyl 2-hydroxy-3-[4-[2-(1-indolyl)ethoxy]-phenyl]propanoate]	
202 to 203	O=C1NC(=O)C(=Cc2ccc(OCCc3ccc(Cl)cc3)cc2)S1 [Example 20, 5-[4-[2-(4-chlorophenyl)ethoxy]phenylmethylene]thiazolidine-2,4-dione]	
147 to 148	O=C1NC(=O)C(Cc2ccc(OCCc3ccc(Cl)cc3)cc2)S1 (centres unmarked) [Example 21, 5-[4-[2-(4-chlorophenyl)ethoxy]phenylmethyl]-thiazolidine-2,4-dione]	
	COC(=O)C(Cc1cccc(OCCc2ccc(Cl)cc2)c1)C(=O)OC [Example 22, dimethyl 3-[2-(4-chlorophenyl)ethoxy]-benzylmalonate]	lowest concentration of those assayed to induce a 40% increase in glucose consumption [1]: 1 µM; Weight gain % [2]: +16 ▴ %; Reduction of glucose levels % [2]: −32 Δ %; Reduction of triglyceride levels % [2]: −47 ▴ %; Change in GPT levels % [2]: +38 ▴ %; Change in HDL-cholesterol levels % [2]: +37 ▴ %
68.5	COC(=O)C(Cc1ccc(OCCc2ccc3ccccc3c2)cc1)C(=O)OC [Example 29, dimethyl 4-[2-(2-naphthyl)ethoxy]benzyl-malonate]	
186 to 187	O=C1NC(=O)C(=Cc2cccc(OCCc3ccc(Cl)cc3)c2)S1 [Example 46, 5-[3-[2-(4-chlorophenyl)ethoxy]phenylmethylene]thiazolidine-2,4-dione]	
90 to 91	O=C1NC(=O)C(Cc2cccc(OCCc3ccc(Cl)cc3)c2)S1 (centres unmarked) [Example 47, 5-[3-[2-(4-chlorophenyl)ethoxy]phenylmethyl]thiazolidine-2,4-dione]	
	CN(CCOc1ccc(CC2SC(=O)NC2=O)cc1)c1ccccn1 (centres unmarked) [Rosiglitazone, rosiglitazone, reference compound]	lowest concentration of those assayed to induce a 40% increase in glucose consumption [1]: 5 µM; Reduction of glucose levels % [2]: −36 Δ %; Reduction of triglyceride levels % [2]: −41 ▴ %; Change in GPT levels % [2]: +117 ▴ %; Change in HDL-cholesterol levels % [2]: −7%
